Source: patent publication US8895572B2, “Fused heterocyclic indane carboxamide CGRP receptor antagonists” (Merck Sharp & Dohme Corp., priority 2010, dated 2014)

biological target: T1, recombinant human CL receptor/RAMP1 (Homo sapiens, UniProt O60894+Q16602); experiment: Recombinant receptor binding assay (125I-hCGRP); conditions: membranes of HEK 293 cells expressing human CL receptor/RAMP1, 10 pM 125I-hCGRP, 3 h at room temperature
T1 construct: expressed in transfected cells; membranes used
Description: Human CL receptor (Genbank accession number L76380) was subcloned into the expression vector pIREShyg2 (BD Biosciences Clontech) as a 5′NheI and 3′ PmeI fragment. Human RAMP1 (Genbank accession number AJ001014) was subcloned into the expression vector pIRESpuro2 (BD Biosciences Clontech) as a 5′NheI and 3′NotI fragment. HEK 293 cells (human embryonic kidney cells; ATCC #CRL-1573) were cultured in DMEM with 4.5 g/L glucose, 1 mM sodium pyruvate and 2 mM glutamine supplemented with 10% fetal bovine serum (FBS), 100 units/mL penicillin and 100 μg/mL streptomycin, and maintained at 37° C. and 95% humidity. Cells were subcultured by treatment with 0.25% trypsin with 0.1% EDTA in HBSS. Stable cell line generation was accomplished by co-transfecting 10 μg of DNA with 30 μg Lipofectamine 2000 (Invitrogen) in 75 cm^2 flasks. CL receptor and RAMP1 expression constructs were co-transfected in equal amounts. Twenty-four hours after transfection the cells were diluted and selective medium (growth medium+300 μg/mL hygromycin and 1 μg/mL puromycin) was added the following day. A clonal cell line was generated by single cell deposition utilizing a FACS Vantage SE (Becton Dickinson). Growth medium was adjusted to 150 μg/mL hygromycin and 0.5 μg/mL puromycin for cell propagation.
Cells expressing recombinant human CL receptor/RAMP1 were washed with PBS and harvested in harvest buffer containing 50 mM HEPES, 1 mM EDTA and Complete™ protease inhibitors (Roche). The cell suspension was disrupted with a laboratory homogenizer and centrifuged at 48,000 g to isolate membranes. The pellets were resuspended in harvest buffer plus 250 mM sucrose and stored at […]. For binding assays, 20 μg of membranes were incubated in 1 mL binding buffer (10 mM HEPES, pH 7.4, 5 mM MgCl2, and 0.2% BSA) for 3 h at room temperature containing 10 pM ^125I-hCGRP (GE Healthcare) and antagonist. The assay was terminated by filtration through 96-well GFB glass fiber filter plates (PerkinElmer) that had been blocked with 0.05% polyethyleneimine. The filters were washed 3 times with ice-cold assay buffer (10 mM HEPES, pH 7.4, and 5 mM MgCl2). Scintillation fluid was added and the plates were counted on a Topcount (Packard). Non-specific binding was determined and the data analysis was carried out with the apparent dissociation constant (Ki) determined by using a non-linear least squares fitting the bound CPM data to the equation below:
[formula] Where Y is observed CPM bound, Ymax is total bound counts, Ymin is non specific bound counts, (Ymax−Ymin) is specific bound counts, % Imax is the maximum percent inhibition, % 1 min is the minimum percent inhibition, radiolabel is the probe, and the Kd is the apparent dissociation constant for the radioligand for the receptor as determined by hot saturation experiments.

T1 sequence (Q16602 23-461): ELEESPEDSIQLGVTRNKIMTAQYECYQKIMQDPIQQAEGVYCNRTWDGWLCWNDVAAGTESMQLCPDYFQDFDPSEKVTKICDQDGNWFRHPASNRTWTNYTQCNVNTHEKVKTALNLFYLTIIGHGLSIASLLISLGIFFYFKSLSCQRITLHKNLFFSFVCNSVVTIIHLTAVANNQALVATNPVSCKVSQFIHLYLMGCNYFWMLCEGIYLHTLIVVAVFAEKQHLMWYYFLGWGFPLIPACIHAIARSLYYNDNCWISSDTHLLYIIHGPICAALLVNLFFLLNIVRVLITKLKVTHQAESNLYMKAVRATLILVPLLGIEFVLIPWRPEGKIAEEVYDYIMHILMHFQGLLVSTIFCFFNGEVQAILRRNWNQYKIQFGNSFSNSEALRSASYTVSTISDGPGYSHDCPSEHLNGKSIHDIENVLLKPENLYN
T1 sequence (O60894 27-148): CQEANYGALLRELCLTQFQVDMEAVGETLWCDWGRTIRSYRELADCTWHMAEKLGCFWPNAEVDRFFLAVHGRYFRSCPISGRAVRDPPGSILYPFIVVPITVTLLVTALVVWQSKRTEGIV

Row | Compound | Ki
1 | C[C@@H]1[C@H](c2ccccc2)C[C@H](NC(=O)c2ccc3c(c2)C[C@@]2(C3)C(=O)Nc3ncncc32)c2ncc(C(C)(C)O)n21 [Example 2.1, (2R)—N-[(5R,6S,8S)-3-(2-Hydroxypropan-2-yl)-5-methyl-6-phenyl-5,6,7,8-tetrahydroimidazo[1,2-a]pyridin-8-yl]-6′-oxo-1,3′,6′,7′-tetrahydrospiro[indene-2,5′-pyrrolo[2,3-d]pyrimidine]-5-carboxamide] | 190 pM
2 | C[C@@H]1[C@H](c2ccccc2)C[C@H](NC(=O)c2ccc3c(c2)C[C@@]2(C3)C(=O)Nc3ncccc32)c2ncc(C(C)(C)O)n21 [Example 1.20, (2R)—N-[(5R,6S,8S)-3-(2-Hydroxypropan-2-yl)-5-methyl-6-phenyl-5,6,7,8-tetrahydroimidazo[1,2-a]pyridin-8-yl]-2′-oxo-1,1′,2′,3-tetrahydrospiro[indene-2,3′-pyrrolo[2,3-b]pyridine]-5-carboxamide] | 270 pM
3 | O=C(N[C@H]1C[C@@H](c2cccc(F)c2F)Cn2c(CC(F)(F)F)nnc21)c1ccc2c(c1)C[C@@]1(C2)C(=O)Nc2ncccc21 [Example 1.14, (2R)—N-[(6S,8S)-6-(2,3-Difluorophenyl)-3-(2,2,2-trifluoroethyl)-5,6,7,8-tetrahydr[1,2,4]triazolo[4,3-a]pyridin-8-yl]-2′-oxo-1,1′,2′,3-tetrahydrospiro[indene-2,3′-pyrrolo[2,3-b]pyridine]-5-carboxamide] | 70 pM
4 | COC(C)(C)c1cnc2n1C[C@H](c1cccc(F)c1F)C[C@@H]2NC(=O)c1ccc2c(c1)C[C@@]1(C2)C(=O)Nc2ncccc21 [Example 1.8, (2R)—N-[(6S,8S)-6-(2,3-Difluorophenyl)-3-(2-methoxypropan-2-yl)-5,6,7,8-tetrahydroimidazo[1,2-a]pyridin-8-yl]-2′-oxo-1,1′,2′,3-tetrahydrospiro[indene-2,3′-pyrrolo[2,3-b]pyridine]-5-carboxamide] | 30 pM
5 | C[C@@H]1[C@H](c2ccccc2)C[C@H](NC(=O)c2ccc3c(c2)C[C@@]2(C3)C(=O)Nc3ncccc32)c2nnc(C3(C(F)(F)F)CC3)n21 [Example 1.19, (2R)—N-{(5R,6S,8S)-5-Methyl-6-phenyl-3-[1-(trifluoromethyl)cyclopropyl]-5,6,7,8-tetrahydro[1,2,4]triazolo[4,3-a]pyridin-8-yl}-2′-oxo-1,1′,2′,3-tetrahydrospiro[indene-2,3′-pyrrolo[2,3-b]pyridine]-5-carboxamide] | 390 pM
6 | O=C(N[C@H]1C[C@@H](c2cccc(F)c2F)Cn2c(CC(F)(F)F)cnc21)c1ccc2c(c1)C[C@@]1(C2)C(=O)Nc2ncccc21 [Example 1.2, (2R)—N-[(6S,8S)-6-(2,3-Difluorophenyl)-3-(2,2,2-trifluoroethyl)-5,6,7,8-tetrahydroimidazo[1,2-a]pyridin-8-yl]-2′-oxo-1,1′,2′,3-tetrahydrospiro[indene-2,3′-pyrrolo[2,3-b]pyridine]-5-carboxamide] | 70 pM
